Entries after “also recorded” stand apart in the source; their conditions may differ.
What was measured:
[1] = tested on: human sense of taste; assay: Determination of sweetness recognition threshold concentration by trained taste tester; assay type: in vivo; settings: in water at room temperature; for minimal effective concentration: Homo sapiens, read-out: Sweetness recognition threshold Level
Method: The term “sweetness recognition threshold concentration,” as generally used herein, is the lowest known concentration of a sweet compound that is perceivable by the human sense of taste. The sweetness recognition threshold level is specific for a particular compound, and varies based on temperature, matrix, ingredients and/or flavor system. The sweetness recognition threshold concentrations measurements and 5% sucrose equivalence measurements described herein were determined in water at room temperature.
A sip (approximately 2-5 mL) of control sample, including but not limited to water, was tasted and swallowed by a trained taste tester. After allowing a 15-25 second interval to pass, a second sip of the control is tasted and swallowed. The taste properties of the control are determined and recorded by the trained taste tester. An unknown sample is then tasted and swallowed in the same manner, allowing a 15-25 second interval between the two sips. Preferably no more than ten additives are tested per day to avoid taste fatigue. Each sample was taken at least 1.5 hours following eating or drinking The sweetness recognition thresholds concentration of 21 steviol glycosides were determined in this manner, and are shown in Table 1.

[2] = tested on: human sense of taste; assay: Sugar-like taste quality enhancement of Stevia sweeteners by steviol glycoside additives, taste test by trained individual; assay type: in vivo; settings: for Taste change of Stevia Sweetener REBA (303 ppm) with Steviol Glycoside Additive / Taste change of Stevia Sweetener JSS (380 ppm) with Steviol Glycoside Additive / Taste change of Stevia Sweetener REBD (303 ppm) with Steviol Glycoside Additive: additive at or below its sweetness recognition threshold concentration, 5% sucrose equivalence, water, room temperature; for Taste change of Stevia Sweetener REBA (303 ppm) with Steviol Glycoside Additive: 97% pure rebaudioside A 303 ppm; for Taste change of Stevia Sweetener REBD (303 ppm) with Steviol Glycoside Additive: rebaudioside D 303 ppm; for sugar-like taste quality enhancement effect: mostly in 5% SE rebaudioside A, compared with compound 1;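 as to Taste change of Stevia Sweetener JSS (380 ppm) with Steviol Glycoside Additive: code −B means less bitterness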
Method: A steviol glycoside is added in an amount at or below sweetness recognition threshold concentration to a solution of water and a Stevia sweetener. The solution is maintained at room temperature. Each sample is taste tested by a trained individual, as described in Example 1, in duplicate. Preferably no more than ten steviol glycosides are tested per day to avoid taste fatigue. Each sample was taken at least 1.5 hours following eating or drinking
The Stevia sweeteners used in this study were 97% pure rebaudioside A, JSS, and rebaudioside D.
The steviol glycosides were used in at or below sweetness recognition threshold concentrations. […]

[3] = additive at 500 ppm, all three control 5% SE Stevia sweeteners

Row | Compound | minimal effective concentration [1] [µg/mL] | Taste change of Stevia Sweetener REBA (303 ppm) with Steviol Glycoside Additive [2] | Taste change of Stevia Sweetener JSS (380 ppm) with Steviol Glycoside Additive [2] | Taste change of Stevia Sweetener REBD (303 ppm) with Steviol Glycoside Additive [2] | Sweetness recognition threshold Level [1] [ppm] | other results
1 | C[C@@]12CCC[C@@](C)(C(=O)OC3OC(CO)C(O)C(O)C3O)[C@H]1CC[C@@]13C[C@@](OC4OC(CO)C(O)C(OC5OC(CO)C(O)C(O)C5O)C4OC4OC(CO)C(O)C(O)C4O)(CC[C@H]12)[C@](C)(O)C3 (stereo partly shown) [Compound 3] | 700 | +, −B, −SL, OF | −B, OF | +, −SL, OF | – | modulation of Stevia sweeteners ([2]; additive at 700 ppm, all Stevia sweeteners): positive modulation of all Stevia sweeteners; off-taste note ([2]; additive at 700 ppm, with Stevia sweeteners): weak chemical-like note; sugar-like taste quality enhancement effect [2]: similar, but smaller positive sugar-like taste quality enhancement effect
2 | C=C1C[C@@]23CC[C@H]4[C@@](C)(CCC[C@@]4(C)C(=O)O)[C@@H]2CC[C@]1(O[C@@H]1O[C@H](CO)[C@@H](O)[C@H](O)[C@H]1O[C@@H]1O[C@H](CO)[C@@H](O)[C@H](O)[C@H]1O)C3 [Steviolbioside, steviolbioside] | – | N (N: no difference in presence or absence of steviol glycoside additive;) | N (N: no difference in presence or absence of steviol glycoside additive;) | N (N: no difference in presence or absence of steviol glycoside additive;) | 50 | –
3 | C=C1C[C@@]23CC[C@H]4[C@@](C)(CCC[C@@]4(C)C(=O)O[C@@H]4O[C@H](CO)[C@@H](O)[C@H](O)[C@H]4O)[C@@H]2CC[C@]1(O[C@@H]1O[C@H](CO)[C@@H](O)[C@H](O)[C@H]1O[C@@H]1O[C@H](CO)[C@@H](O)[C@H](O)[C@H]1O)C3 [Stevioside, stevioside] | 25 | N (N: no difference in presence or absence of steviol glycoside additive;) | – | N (N: no difference in presence or absence of steviol glycoside additive;) | – | –
4 | C=C1C[C@@]23CC[C@H]4[C@@](C)(CCC[C@@]4(C)C(=O)O[C@@H]4O[C@H](CO)[C@@H](O)[C@H](O)[C@H]4O)[C@@H]2CC[C@]1(O[C@@H]1O[C@H](CO)[C@@H](O)[C@H](O[C@@H]2O[C@H](CO)[C@@H](O)[C@H](O)[C@H]2O)[C@H]1O[C@@H]1O[C@H](CO)[C@@H](O)[C@H](O)[C@H]1O)C3 [Rebaudioside A, rebaudioside A] | – | – | N (N: no difference in presence or absence of steviol glycoside additive;) | N (N: no difference in presence or absence of steviol glycoside additive;) | 12.6 | Sweetness recognition threshold Level ([1]; listed as rebaudioside A): about 12.6 ppm
5 | rebaudioside C | – | N (N: no difference in presence or absence of steviol glycoside additive;) | N (N: no difference in presence or absence of steviol glycoside additive;) | N (N: no difference in presence or absence of steviol glycoside additive;) | 100 | –
6 | C[C@@]12CCC[C@@](C)(C(=O)OC3OC(CO)C(O)C(O)C3O)[C@H]1CC[C@]13C=C(CO)[C@](OC4OC(CO)C(O)C(OC5OC(CO)C(O)C(O)C5O)C4OC4OC(CO)C(O)C(O)C4O)(CC[C@H]12)C3 (stereo partly shown) [Compound 5] | 250 | +, −B, W | N (N: no difference in presence or absence of steviol glycoside additive;) | N (N: no difference in presence or absence of steviol glycoside additive;) | – | sugar-like taste quality ([2]; additive at 250 ppm, rebaudioside A): improve the sugar-like taste quality of rebaudioside A; sugar-like taste quality enhancement effect [2]: similar, but smaller positive sugar-like taste quality enhancement effect
7 | C=C1C[C@@]23CC[C@H]4[C@@](C)(CCC[C@@]4(C)C(=O)O[C@@H]4O[C@H](CO)[C@@H](O)[C@H](O)[C@H]4O[C@@H]4O[C@H](CO)[C@@H](O)[C@H](O)[C@H]4O)[C@@H]2CC[C@]1(O[C@@H]1O[C@H](CO)[C@@H](O)[C@H](O[C@@H]2O[C@H](CO)[C@@H](O)[C@H](O)[C@H]2O)[C@H]1O[C@@H]1O[C@H](CO)[C@@H](O)[C@H](O)[C@H]1O)C3 [Rebaudioside D, rebaudioside D] | – | N (N: no difference in presence or absence of steviol glycoside additive;) | N (N: no difference in presence or absence of steviol glycoside additive;) | – | 25 | Sweetness recognition threshold Level ([1]; listed as rebaudioside D): about 25 ppm
8 | rebaudioside F | – | N (N: no difference in presence or absence of steviol glycoside additive;) | N (N: no difference in presence or absence of steviol glycoside additive;) | N (N: no difference in presence or absence of steviol glycoside additive;) | 25 | –
9 | C=C1C[C@@]23CC[C@H]4[C@@](C)(CCC[C@@]4(C)C(=O)OC4OC(C(=O)O)C(O)C(O)C4O)[C@@H]2CC[C@]1(O)C3 (stereo partly shown) [Steviol glucuronide, steviol glucoronide] | 85 | N (N: no difference in presence or absence of steviol glycoside additive;) | −B | N (N: no difference in presence or absence of steviol glycoside additive;) | – | bitterness ([2]; additive at 85 ppm, 5% SE JSS): less bitterness
10 | rebaudioside B | – | N (N: no difference in presence or absence of steviol glycoside additive;) | N (N: no difference in presence or absence of steviol glycoside additive;) | N (N: no difference in presence or absence of steviol glycoside additive;) | 25 | –
11 | C[C@@]12CCC[C@@](C)(C(=O)O)[C@H]1CC[C@@]13C[C@@](OC4OC(CO)C(O)C(OC5OC(CO)C(O)C(O)C5O)C4OC4OC(CO)C(O)C(O)C4O)(CC[C@H]12)[C@](C)(O)C3 (stereo partly shown) [Compound 1] | 500 | ++, ASLC,; also recorded: +S, −B | ++, ASLC,; also recorded: +S, −B | ++, ASLC,; also recorded: +S, −B | – | bitterness, sweet lingering, off-taste note [2, 3]: no bitterness, sweet lingering or off-taste note; slightly sweeter profile (increase in sucrose equivalence) [2, 3]: ca. 1 % SE; sugar-like tasting quality enhancement [2, 3]: significantly enhanced all three control 5% SE Stevia sweeteners to a much superior sugar-like tasting quality
12 | C=C1C[C@@]23CC[C@H]4[C@@](C)(CCC[C@@]4(C)C(=O)O[C@@H]4O[C@H](CO)[C@@H](O)[C@H](O)[C@H]4O)[C@@H]2CC[C@]1(O[C@@H]1O[C@H](CO)[C@@H](O)[C@H](O)[C@H]1O)C3 [Rubusoside, rubusoside] | 50 | N(+) (N(+): same as “N” but slightly more;) | N (N: no difference in presence or absence of steviol glycoside additive;) | N (N: no difference in presence or absence of steviol glycoside additive;) | – | –
13 | C[C@H](CC[C@@H](O[C@@H]1O[C@H](CO[C@@H]2O[C@H](CO)[C@@H](O)[C@H](O)[C@H]2O)[C@@H](O)[C@H](O)[C@H]1O[C@@H]1O[C@H](CO)[C@@H](O)[C@H](O)[C@H]1O)C(C)(C)O)[C@H]1CC[C@@]2(C)[C@@H]3CC=C4[C@@H](CC[C@H](O[C@@H]5O[C@H](CO[C@@H]6O[C@H](CO)[C@@H](O)[C@H](O)[C@H]6O)[C@@H](O)[C@H](O)[C@H]5O)C4(C)C)[C@]3(C)[C@H](O)C[C@]12C [Mogroside V, mogroside V] | – | N (N: no difference in presence or absence of steviol glycoside additive;) | N (N: no difference in presence or absence of steviol glycoside additive;) | ~+S (~+S: Slightly more detected sweetness intensity (~0.5% Sucrose Equivalence);) | 20 | Sweetness recognition threshold Level ([1]; listed as mogroside V): about 15 ppm

From patent US20130064955A1, “NATURAL SWEETENED COMPOSITIONS AND METHODS FOR PREPARING THE SAME” (priority 2011, published 2013)
